Data from paper PMC5447021, “TNF Lectin-Like Domain Restores Epithelial Sodium Channel Function in Frameshift Mutants Associated with Pseudohypoaldosteronism Type 1B” (Frontiers in Immunology, 2017).

Assays:
[1] = test system: αT169fs (co-expressed with βγ-ENaC); test: Whole-cell patch clamp, αT169fs + WT βγ; assay type: cell-based, human; settings: read-out: EC50, solnatide, HEK-293, whole-cell, -100 mV, n = 9
Method: Point mutations of α-, β-, γ- and δ-hENaC and PHA1B frameshift mutations of α-hENaC were prepared with the QuikChange Lightning Site-Directed Mutagenesis Kit (Agilent Technologies, CA, USA). Mutagenic primers were designed individually with the Primer Design Program provided on the producer’s website or for the frameshift mutations the same base changes as reported in patients (see Table 2) were performed. Primers were ordered from Sigma-Aldrich, Vienna, Austria.
HEK-293 cells were transfected 1 day after cell seeding using X-tremeGENE HP DNA transfection reagent (Roche Diagnostics, Mannheim, Germany) according to the manufacturer’s protocol. A set of WT or mutant αβγ- or δβγ-hENaC, or α-, β-, γ-, or δ-hENaC alone was used, and the ratio of DNA to transfection reagent was 1:3. The expression was highest 48–72 h after transfection.
Electrophysiological experiments were performed as described in detail by Shabbir et al. ([16]). […] Currents were recorded with the patch clamp method in the whole-cell mode. The chamber contained 1 ml of the bath solution of the following composition (in mM): 145 NaCl, 2.7 KCl, 1.8 CaCl2, 2 MgCl2, 5.5 glucose, and 10 HEPES, adjusted to pH 7.4 with 1 M NaOH solution. Micropipettes were pulled from thin-walled borosilicate glass capillaries (Harvard Apparatus, Holliston, MA, USA) with a DMZ Zeitz Puller to obtain electrode resistances ranging from 2 to 5 MΩ. […]

αE272fs = test: Membrane abundance of αE272fs; assay type: cell-based, human; settings: 200 nM, relative to WT control (=1), own control 0.35 ± 0.06, p < 0.001 vs control
Method: Cell surface biotinylation was performed as previously described ([26]). In brief, A549 cells or transiently transfected HEK-293 cells were grown in 10 cm dishes in 37°C, 5% CO2 incubator in DMEM medium supplemented with 5% FBS. […] Medium was aspirated, and then cells were washed twice with 10 ml ice-cold phosphate-buffered saline (PBS), covered with 2.5 mg EZ-Link Sulfo-NHS-SS-Biotin (Thermo Scientific, Rockford, USA), dissolved in 10 ml ice-cold PBS, and incubated at 4°C with gentle agitation for 30 min. Fifty milliliters of quenching solution were added to cells; then cells were scraped in solution and transferred to fresh 50 ml tube. Cell suspension was centrifuged at 500 × g for 3 min. Supernatant was discarded, and 5 ml of Tris-buffered saline (TBS) was added to the cell pellet. The cell pellet was resuspended and centrifuged at 500 × g for 3 min. Supernatant was discarded and cell pellet was resuspended in lysis buffer containing protease inhibitor cocktail (10 µM pepstatin A, 10 µM phenylmethylsulfonyl fluoride, and 10 µM leupeptin) and transferred to fresh 1.5 ml centrifuge tube. Cell pellet was then homogenized on ice by ultrasonication using 1 s bursts and incubated on ice for at least 30 min. Intact cells and nuclei were pelleted by centrifugation at 10,000 × g for 2 min under cooling conditions. […] Exposed films were scanned and quantified using ImageJ (NIH, MD, USA). […]

[2] = test system: pathological conditions involving ENaC; settings: cited from earlier work

**Q.** Which EC50 [1] does the source give for `C[C@@H]1NC(=O)CNC(=O)[C@H](CCC(=O)O)NC(=O)[C@@H]2CCCN2C(=O)[C@H]([C@@H](C)O)NC(=O)[C@H](CCC(=O)O)NC(=O)[C@H](CCCNC(=N)N)NC(=O)[C@H](CCC(N)=O)NC(=O)CNC(=O)[C@@H](N)CSSC[C@@H](C(=O)O)NC(=O)[C@H](Cc2ccc(O)cc2)NC(=O)[C@H](Cc2c[nH]c3ccccc23)NC(=O)[C@@H]2CCCN2C(=O)[C@H](CCCCN)NC(=O)[C@H](C)NC(=O)[C@H](CCC(=O)O)NC1=O` [solnatide, L-cysteine, L-cysteinylglycyl-L-glutaminyl-L-arginyl-L-α-glutamyl-L-threonyl-L-prolyl-L-α-glutamylglycyl-L-alanyl-L-α-glutamyl-L-alanyl-L-lysyl-L-prolyl-L-tryptophyl-L-tyrosyl-, cyclic (1→17)-disulfide] here?
**A.** The EC50 was 58.3 ± 5.2 nM.

**Q.** And the “Membrane abundance, solnatide 5 min” value (αE272fs; 5 min)?
**A.** The value was 0.72 ± 0.03.

**Q.** What about the “Membrane abundance, solnatide 10 min” value (αE272fs; 10 min) of the same compound?
**A.** Its value is 0.64 ± 0.05.

**Q.** What about the “Efficacy in phase II clinical trials” value [2] of the same compound?
**A.** The value was “already proven in pathological conditions involving ENaC in phase II clinical trials”.
